# Data published in patent US8912136B2, “Methods and compositions related to clot-binding compounds” (Sanford-Burnham Medical Research Institute, priority 2009, dated 2014).
# Where no end group is shown, it is not given here. FAM = 5(6)-carboxyfluorescein; Ahx = NCCCCCC(=O)O
# Experiments:
# [1] = tested on: orthotopic 22Rv1 xenograft tumors; assay: In vivo homing of FAM-labeled CREKA and methylated CREKA peptides; design: species or system mouse
# Experimental: Tumor accumulation of CREKA peptide and its N-methylated and C-methylated variants. The accumulation of N-methylated and C-methylated derivatives of CREKA was measured in mice bearing orthotropic 22Rv-1 xenograft tumors. The mice were intravenously injected with 200 μg of FAM-conjugated CREKA or methylated CREKA peptides derivatives. The peptides were allowed to circulate for 3 hrs. The mice were then perfused through the heart with PBS, and organs were collected and the fluorescence was measured under UV light. The fluorescence was analyzed with Image J software. Most N/C-methylated CREKA analogs produced stronger fluorescence compared to the unmodified CREKA. […] In FIG. 10B the enhanced fluorescence of CR(NMe)EKA is shown in the tumor compared to both CREKA and C(NMe)REKA peptide. It is shown that FAM-labeled CREKA peptide in which the glutamic acid is N-methylated accumulates in tumor tissue more strongly than unmodified CREKA.
# Orthotopic prostate cancers were used when they reached 0.5-1 cm in size. Synthetic peptides labeled with fluorescein (approximately 200 μg) were intravenously injected into tumor-bearing mice and allowed to circulate for 15 minutes to 3 hours. The mice were perfused with PBS through the heart under anesthesia, and tissues were collected and observed under UV light (Illumatool Bright Light System LT-9900, Lightools Research, Encinitas, Calif.), and then processed for immunofluorescence or immunohistochemistry.
# plasma clots = assay: Binding to plasma clots (affinity); settings: data not shown
# mouse plasma clots = assay: Nanoparticle binding to plasma clots in vitro; settings: FIG. 1D
# Experimental: Phage and nanoparticle binding to clots. Phage binding to clotted plasma proteins was determined as described (Pilch 2006). CREKA-SPIO and control SPIO were added to freshly formed plasma clots in the presence or absence of free CREKA peptide. After 10 min incubation, the clots were washed 4 times in PBS, transferred to a new tube and digested in 100 μl concentrated nitric acid. The digested material was diluted in 2 ml distilled water and the iron concentration was determined using inductively coupled plasma-optical emission spectroscopy (ICP-OES, PerkinElmer, Norwalk, Conn.).
# [2] = Peptide stability in vivo (NW-bound peptide recovered from blood, mass spectrometry); design: species or system mouse
# Experimental: The peptides were conjugated with a linker that bridges the NW and a cysteine residue on the peptide, forming a disulfide with the OPSS group. The peptide-coated NW were injected into animals, and blood was collected 15 minutes and 3 hours after the injection. The plasma was separated and NW were collected by ultracentrifugation (100,000×g for 10 minutes at 4° C.). Proteins bound to the NW were removed by incubation with glycine-HCl, pH 2.8 on a magnetic LS columns (MACS separation columns, Miltenyi Biotec, Bergisch Gladbach, Germany). The peptides were cleaved from the NW by incubating with 10 mM dithiothreitol for 30 minutes at room temperature. The iron oxide was separated from the peptide by ultracentrifugation (100,000×g for 10 minutes at 4° C.) and the supernatant fractions containing the peptide were analyzed by matrix-assisted laser desorption ionization-time of flight (MALDI-TOF) mass spectrometry.
# B16F1 melanomas = assay: CREKA peptide homing in fibrinogen null mice and normal littermates; format: in vivo, mouse; settings: intravenous
# Experimental: Tumors contain a meshwork of clotted plasma proteins in the tumor stroma and the walls of vessels, but no such meshwork is detectable in normal tissues (Dvorak 1985; Abe 1999; Pilch 2006). The mesh-like pattern produced by the CREKA peptide in tumors prompted the study of whether clotted plasma proteins can be the target of this peptide. The peptide was tested in fibrinogen knockout mice, which lack the fibrin meshwork in their tumors. […] Its structure makes it an attractive peptide to use in nanoparticle targeting because, unlike other clot-binding peptides, which are cyclic 10 amino-acid peptides (Pilch 2006), CREKA is linear and contains only 5 amino acids. Moreover, the sulfhydryl group of the single cysteine residue is not required to provide binding activity and can be used to couple the peptide to other moieties.
# Phage screening, tumors and peptides. In vivo screening of a peptide library with the general structure of CX7C (SEQ ID NO: 4), where C is cysteine and X is any amino acid, was carried out as described (Oh 2004) using 65- to 75-day-old transgenic MMTV PyMT mice (Hutchinson 2000). These mice express the polyoma virus middle T antigen (MT) under the transcriptional control of the mouse mammary tumor virus (MMTV), leading to the induction of multi-focal mammary tumors in 100% of carriers. […]
# PyMT tumors = assay: Tumor homing of intravenously injected fluorescent CREKA peptide; format: in vivo, mouse; settings: intravenous; fluorescent dye at N-terminus; minutes to hours after the injection
# Excerpt: (§1) CREKA peptide. A tumor-homing peptide was used to construct targeted nanoparticles. […] The most frequently represented peptide sequence in the selected phage preparation was CREKA (cys-arg-glu-lys-ala; SEQ ID NO:1). The CREKA peptide was synthesized with a fluorescent dye attached to the N-terminus and the in vivo distribution of the peptide was studied in tumor-bearing mice. […] The peptide formed a distinct meshwork in the tumor stroma (FIG. 5), and it also highlighted the blood vessels in the tumors.
# (§2) Phage screening, tumors and peptides. In vivo screening of a peptide library with the general structure of CX7C (SEQ ID NO: 4), where C is cysteine and X is any amino acid, was carried out as described (Oh 2004) using 65- to 75-day-old transgenic MMTV PyMT mice (Hutchinson 2000). These mice express the polyoma virus middle T antigen (MT) under the transcriptional control of the mouse mammary tumor virus (MMTV), leading to the induction of multi-focal mammary tumors in 100% of carriers. MDA-MB-435 tumors in nude mice and peptide synthesis have been described (Laakkonen 2002; Laakkonen 2004). B16F1 murine melanoma tumors were grown in fibrinogen null mice (Suh 1995) and their normal littermates and used when they reached 0.5-1 cm in size (Pilch 2006).
# [3] = tested on: MDA-MB-435 human breast cancer xenografts; assay: as above; format: in vivo, mouse
# Excerpt: as §1, §2
substance,measurement,setting,value
cys-arg-glu-lys-ala ({FAM-Ahx}-CREKA; not fully specified; printed as cys-arg-glu-lys-ala),fluorescence in the tumors,[1]; 30 minutes after the injection,equally strong fluorescence
same,decrease of tumor fluorescence,[1]; after 3 hours,70%
same,Kd,plasma clots,6 µM
same,effect of free peptide on CREKA-SPIO binding to clotted plasma proteins,mouse plasma clots,inhibited
same,peptide abundance in blood samples,[2]; after 15 minutes of circulation,equally abundant
same,peptide in blood samples,[2]; after 3 hours,undetectable
same,accumulation in tumors grown in fibrinogen null mice,B16F1 melanomas; fibrinogen null mice,failed to accumulate
same,accumulation in tumors grown in normal littermates,B16F1 melanomas; normal littermates of the null mice,formed a brightly fluorescent meshwork
same,CREKA peptide detection in tumors,PyMT tumors,readily detectable
same,whole animal imaging: elimination and liver accumulation,"[3]; 30 μg Alexa Fluor 647-labeled CREKA, 6 hours",excreted into the urine and does not accumulate in the liver
same,CREKA peptide detection in tumors,"[3]; intravenous, fluorescent dye at N-terminus, minutes to hours after the injection",readily detectable
same,CREKA peptide detection in normal tissues,"[3]; intravenous, fluorescent peptide",essentially undetectable
